Each structure is given as a SMILES string. Where two headings read alike, the source gives them in different places.

The record followed here is PMC9898036, “VIP152 is a selective CDK9 inhibitor with pre-clinical in vitro and in vivo efficacy in chronic lymphocytic leukemia” (Leukemia, 2022).

The target of test [1] is JAK3(JH1domain-catalytic) (Homo sapiens, UniProt P52333). Kind of test: KINOMEscan: JAK3(JH1domain-catalytic). The note with it: 1000 nM, read-out: Percent Control. The test is classed as binding.
The next test deals with BRSK2 (Homo sapiens, UniProt Q8IWQ3). Description: KINOMEscan: BRSK2. The note with it: 1000 nM, read-out: Percent Control. The test is classed as binding.
In the next test the target is STK39 (Homo sapiens, UniProt Q9UEW8). Kind of test: KINOMEscan: STK39. In kind it is binding. As to conditions: 100 nM, read-out: Percent Control.
In another test the target is FLT3(D835Y) (Homo sapiens, UniProt P36888, D835Y). Description: KINOMEscan: FLT3(D835Y). The test is classed as binding. As to conditions: 1000 nM, read-out: Percent Control.
The target in another test is CSNK1G2 (Homo sapiens, UniProt P78368). Description: KINOMEscan: CSNK1G2. In kind it is binding. As to conditions: 1000 nM, read-out: Percent Control.
For another test, the system named is MEC-1. Description: MTS proliferation assay. The test is classed as cell-based. The note with it: Homo sapiens.
The next test has as its target GSK3α (Homo sapiens, UniProt P49840). Kind of test: HotSpot radiometric kinase assay. The test is classed as biochemical. As to conditions: 10-dose series from 0.5 nM to 10 µM; vs dinaciclib, KB-0742, atuveciclib. Also noted: purchased ReactionBio. The method, then: (§1) We next compared VIP152 to other CDK inhibitors currently in development. […] The compounds were tested in a 10-dose series from 0.5 nM to 10 µM against CDK9 in complex with Cyclin T1/T2/K, CDK7/Cyclin H, and GSK3α/β.
(§2) Kinomescan Kinase Profiling Assay
(§3) Kinomescan Assay was performed at DiscoverRX and described in Fabian, et al. 2005, Nat.
(§4) Biotechnol. In brief, kinases were produced and subsequently tagged with DNA for qPCR detection.
(§5) Streptavidin-coated magnetic beads were bound to biotinylated kinase ligands to serve as a solid support.
(§6) VIP152 was dissolved in DMSO and tested across a 10 serial threefold dilution set and compared to a test […]
(§7) compound and a DMSO control.
(§8) Kinome map was produced via TreeSpot
(§9) Analysis from DiscoverRX.
(§10) HotSpot Kinase Assay Protocol
(§11) Compounds tested via HotSpot Kinase Assay were sent to ReactionBio for the experiment. The […]
(§12) Kinase substrate was added to reaction buffer (20 mM Hepes (pH 7.5), 10 mM MgCl2, 1 mM EGTA, 0.01% Brij35, 0.02 mg/ml BSA, 0.1 mM Na3VO4, 2 mM DTT, 1% DMSO). Cofactors and kinases were gently added to the reaction buffer. Compounds to be tested were dissolved in 100% DMSO and were delivered into the kinase reaction mixture by Acoustic technology (Echo550; nanoliter range) and incubated for 20 min at room temperature. […] Kinase activity was detected by P81 filter-binding method. […]

The next test deals with CDK7/Cyclin H (Homo sapiens, UniProt P50613). Description: HotSpot radiometric kinase assay. In kind it is biochemical. Also noted: purchased ReactionBio. The method, then: as §1, §2, §3, §4, §5, §6, §7, §8, §9, §10, §11, §12
For the next test, the target named is PKNB(M.tuberculosis) (Mycobacterium tuberculosis, UniProt P9WI81). Description: DiscoverX KINOMEscan kinase profiling. The test is classed as binding. As to conditions: kinase PKNB(M.tuberculosis) (Entrez pknB); compound concentration 1000 nM; read-out: Percent Control.
In another test the target is FRK (Homo sapiens, UniProt P42685). Description: KINOMEscan: FRK. The test is classed as binding. As to conditions: 1000 nM, read-out: Percent Control.
A further test concerns the target IKK-beta (Homo sapiens, UniProt O14920). Kind of test: KINOMEscan: IKK-beta. The test is classed as binding. As to conditions: 1000 nM, read-out: Percent Control.
Another test concerns the target EGFR(L861Q) (Homo sapiens, UniProt P00533, L861Q). Description: KINOMEscan: EGFR(L861Q). The test is classed as binding. The note with it: 1000 nM, read-out: Percent Control.
For another test, the target named is TAK1 (Homo sapiens, UniProt O43318). Description: KINOMEscan: TAK1. The test is classed as binding. The note with it: 100 nM, read-out: Percent Control.
The subject of test [2] is Calcium Channel L-Type Dihydropyridine. Kind of test: Eurofins Diversity Panel. In kind it is binding. As to conditions: rat, Conc. 10 μM.
For another test, the target named is TYRO3 (Homo sapiens, UniProt Q06418). Description: KINOMEscan: TYRO3. In kind it is binding. The note with it: 100 nM, read-out: Percent Control.
A further test deals with FGFR4 (Homo sapiens, UniProt P22455). Description: KINOMEscan: FGFR4. The note with it: 1000 nM, read-out: Percent Control. In kind it is binding.
For a further test, the target named is FGFR1 (Homo sapiens, UniProt P11362). Kind of test: KINOMEscan: FGFR1. As to conditions: 1000 nM, read-out: Percent Control. In kind it is binding.
A further test concerns HG-3. Kind of test: MTS proliferation assay. In kind it is cell-based.
In the next test the target is IGF1R (Homo sapiens, UniProt P08069). Description: KINOMEscan: IGF1R. The test is classed as binding. The note with it: 1000 nM, read-out: Percent Control.
Test [3] concerns the target Platelet Activating Factor (PAF) (Homo sapiens, UniProt P25105). Description: Eurofins Diversity Panel. The note with it: hum, Conc. 10 μM. In kind it is binding.
A further test has as its target FLT3(R834Q) (Homo sapiens, UniProt P36888, R834Q). Kind of test: KINOMEscan: FLT3(R834Q). In kind it is binding. As to conditions: 1000 nM, read-out: Percent Control.

Chain of TYRO3 (Q06418 41-890): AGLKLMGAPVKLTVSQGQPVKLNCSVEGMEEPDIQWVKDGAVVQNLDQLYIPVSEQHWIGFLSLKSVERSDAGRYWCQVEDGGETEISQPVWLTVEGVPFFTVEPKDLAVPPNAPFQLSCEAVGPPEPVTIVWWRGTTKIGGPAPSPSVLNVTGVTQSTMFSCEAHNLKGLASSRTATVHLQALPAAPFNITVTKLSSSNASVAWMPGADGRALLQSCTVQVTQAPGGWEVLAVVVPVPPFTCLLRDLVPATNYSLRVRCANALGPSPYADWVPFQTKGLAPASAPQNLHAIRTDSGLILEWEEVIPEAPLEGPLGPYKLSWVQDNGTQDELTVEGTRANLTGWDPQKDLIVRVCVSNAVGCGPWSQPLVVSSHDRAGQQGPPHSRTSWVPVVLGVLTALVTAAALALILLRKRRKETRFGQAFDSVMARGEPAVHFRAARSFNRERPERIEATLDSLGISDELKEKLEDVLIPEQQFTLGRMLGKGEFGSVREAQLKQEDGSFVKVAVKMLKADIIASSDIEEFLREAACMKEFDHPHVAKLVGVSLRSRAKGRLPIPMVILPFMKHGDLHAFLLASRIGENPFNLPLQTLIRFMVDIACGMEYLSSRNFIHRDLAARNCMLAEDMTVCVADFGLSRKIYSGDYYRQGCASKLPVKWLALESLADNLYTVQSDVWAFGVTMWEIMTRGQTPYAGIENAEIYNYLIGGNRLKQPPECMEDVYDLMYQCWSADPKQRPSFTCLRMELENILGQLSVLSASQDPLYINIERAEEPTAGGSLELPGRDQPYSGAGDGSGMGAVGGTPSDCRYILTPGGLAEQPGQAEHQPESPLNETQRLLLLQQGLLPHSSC
Chain of TAK1 (O43318 whole entry): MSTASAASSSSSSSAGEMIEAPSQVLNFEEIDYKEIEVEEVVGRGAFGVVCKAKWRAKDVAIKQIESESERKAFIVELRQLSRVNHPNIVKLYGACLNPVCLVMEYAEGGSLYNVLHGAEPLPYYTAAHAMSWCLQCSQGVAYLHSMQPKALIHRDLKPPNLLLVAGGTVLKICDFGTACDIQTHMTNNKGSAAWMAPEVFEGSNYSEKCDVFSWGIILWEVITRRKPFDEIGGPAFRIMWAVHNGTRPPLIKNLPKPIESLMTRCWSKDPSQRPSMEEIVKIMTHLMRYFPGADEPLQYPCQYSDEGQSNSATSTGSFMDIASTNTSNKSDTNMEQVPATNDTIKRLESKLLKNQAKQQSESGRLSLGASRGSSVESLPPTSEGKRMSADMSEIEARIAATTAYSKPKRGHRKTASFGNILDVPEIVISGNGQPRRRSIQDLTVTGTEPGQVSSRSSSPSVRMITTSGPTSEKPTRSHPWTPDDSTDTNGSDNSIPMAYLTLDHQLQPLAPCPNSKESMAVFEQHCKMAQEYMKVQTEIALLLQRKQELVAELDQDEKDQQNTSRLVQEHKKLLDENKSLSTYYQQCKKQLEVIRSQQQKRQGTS
Chain of IKK-beta (O14920 whole entry): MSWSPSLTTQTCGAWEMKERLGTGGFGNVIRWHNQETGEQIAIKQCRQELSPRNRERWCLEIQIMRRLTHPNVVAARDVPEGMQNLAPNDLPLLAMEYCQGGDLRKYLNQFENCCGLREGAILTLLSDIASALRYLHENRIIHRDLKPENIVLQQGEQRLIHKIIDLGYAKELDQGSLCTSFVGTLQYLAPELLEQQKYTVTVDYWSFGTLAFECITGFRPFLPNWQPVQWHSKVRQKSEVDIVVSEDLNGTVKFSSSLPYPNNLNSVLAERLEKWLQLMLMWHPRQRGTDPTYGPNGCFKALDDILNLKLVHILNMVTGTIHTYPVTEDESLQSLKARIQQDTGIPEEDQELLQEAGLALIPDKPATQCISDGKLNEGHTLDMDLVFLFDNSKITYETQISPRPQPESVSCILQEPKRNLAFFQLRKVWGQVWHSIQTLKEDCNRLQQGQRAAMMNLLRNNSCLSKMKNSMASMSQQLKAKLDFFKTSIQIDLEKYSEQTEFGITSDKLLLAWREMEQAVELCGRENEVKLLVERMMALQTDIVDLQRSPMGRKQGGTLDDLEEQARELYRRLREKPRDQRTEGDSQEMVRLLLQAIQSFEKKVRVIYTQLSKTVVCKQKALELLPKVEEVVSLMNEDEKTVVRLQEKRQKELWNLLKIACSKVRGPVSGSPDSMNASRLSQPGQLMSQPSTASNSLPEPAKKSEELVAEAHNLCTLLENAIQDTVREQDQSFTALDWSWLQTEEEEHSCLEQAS
Chain of EGFR(L861Q) (P00533 25-1210 L861Q): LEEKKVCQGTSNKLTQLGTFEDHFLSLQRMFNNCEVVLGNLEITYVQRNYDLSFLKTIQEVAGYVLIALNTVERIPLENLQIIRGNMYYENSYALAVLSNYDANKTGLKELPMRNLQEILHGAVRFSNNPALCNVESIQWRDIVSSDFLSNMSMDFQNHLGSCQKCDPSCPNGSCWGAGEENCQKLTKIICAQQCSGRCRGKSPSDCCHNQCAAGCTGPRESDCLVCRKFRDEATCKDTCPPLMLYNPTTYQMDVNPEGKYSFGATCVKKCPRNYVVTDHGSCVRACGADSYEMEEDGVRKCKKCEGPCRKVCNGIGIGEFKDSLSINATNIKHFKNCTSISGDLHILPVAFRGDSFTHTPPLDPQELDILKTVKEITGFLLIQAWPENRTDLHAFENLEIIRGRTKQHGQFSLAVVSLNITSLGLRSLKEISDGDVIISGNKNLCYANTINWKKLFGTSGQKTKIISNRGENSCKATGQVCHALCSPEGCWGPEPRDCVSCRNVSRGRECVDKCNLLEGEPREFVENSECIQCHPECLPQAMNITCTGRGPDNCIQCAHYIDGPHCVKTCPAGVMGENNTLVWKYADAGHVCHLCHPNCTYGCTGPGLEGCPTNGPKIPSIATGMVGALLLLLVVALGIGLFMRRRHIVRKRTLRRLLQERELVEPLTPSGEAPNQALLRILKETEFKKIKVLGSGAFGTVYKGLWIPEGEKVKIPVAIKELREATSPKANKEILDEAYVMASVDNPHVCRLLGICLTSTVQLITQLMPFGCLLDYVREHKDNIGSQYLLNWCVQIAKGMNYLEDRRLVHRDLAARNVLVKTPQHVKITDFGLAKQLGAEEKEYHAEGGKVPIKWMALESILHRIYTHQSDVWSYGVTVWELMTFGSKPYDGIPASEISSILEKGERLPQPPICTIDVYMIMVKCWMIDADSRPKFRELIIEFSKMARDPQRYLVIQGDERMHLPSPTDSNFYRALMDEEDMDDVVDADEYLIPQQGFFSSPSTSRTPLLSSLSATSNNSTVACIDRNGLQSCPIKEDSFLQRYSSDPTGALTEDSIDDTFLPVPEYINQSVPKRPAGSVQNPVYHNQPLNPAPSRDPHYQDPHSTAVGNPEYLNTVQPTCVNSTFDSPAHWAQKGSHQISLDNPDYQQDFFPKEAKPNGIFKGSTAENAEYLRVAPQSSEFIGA
Chain of PKNB(M.tuberculosis) (P9WI81 whole entry): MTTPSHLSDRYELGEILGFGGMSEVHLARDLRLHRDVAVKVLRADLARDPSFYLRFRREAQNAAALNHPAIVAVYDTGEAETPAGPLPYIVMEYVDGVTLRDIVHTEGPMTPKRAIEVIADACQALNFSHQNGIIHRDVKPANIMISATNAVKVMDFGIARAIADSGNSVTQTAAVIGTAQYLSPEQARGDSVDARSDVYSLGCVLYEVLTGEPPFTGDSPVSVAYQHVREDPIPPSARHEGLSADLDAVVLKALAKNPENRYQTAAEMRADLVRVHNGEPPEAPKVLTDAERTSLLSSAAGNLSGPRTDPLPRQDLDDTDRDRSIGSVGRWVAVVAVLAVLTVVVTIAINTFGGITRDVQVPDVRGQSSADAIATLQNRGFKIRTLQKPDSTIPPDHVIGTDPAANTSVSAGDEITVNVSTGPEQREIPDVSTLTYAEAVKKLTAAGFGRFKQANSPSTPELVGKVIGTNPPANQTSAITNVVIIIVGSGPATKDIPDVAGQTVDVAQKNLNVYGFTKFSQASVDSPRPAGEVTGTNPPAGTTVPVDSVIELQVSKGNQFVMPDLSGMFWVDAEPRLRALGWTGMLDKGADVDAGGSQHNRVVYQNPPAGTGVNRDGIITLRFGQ
Chain of CSNK1G2 (P78368 whole entry): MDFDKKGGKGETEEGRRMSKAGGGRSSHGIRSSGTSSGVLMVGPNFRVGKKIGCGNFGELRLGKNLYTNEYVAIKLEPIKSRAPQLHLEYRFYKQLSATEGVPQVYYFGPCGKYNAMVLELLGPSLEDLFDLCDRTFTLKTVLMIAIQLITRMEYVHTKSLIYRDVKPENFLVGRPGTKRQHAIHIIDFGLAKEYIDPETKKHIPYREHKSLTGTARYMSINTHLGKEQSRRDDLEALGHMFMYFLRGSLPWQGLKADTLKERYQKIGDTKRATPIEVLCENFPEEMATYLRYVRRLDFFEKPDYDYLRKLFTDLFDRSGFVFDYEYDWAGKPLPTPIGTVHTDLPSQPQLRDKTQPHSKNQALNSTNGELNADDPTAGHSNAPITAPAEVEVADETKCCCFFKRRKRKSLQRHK
Chain of GSK3α (P49840 whole entry): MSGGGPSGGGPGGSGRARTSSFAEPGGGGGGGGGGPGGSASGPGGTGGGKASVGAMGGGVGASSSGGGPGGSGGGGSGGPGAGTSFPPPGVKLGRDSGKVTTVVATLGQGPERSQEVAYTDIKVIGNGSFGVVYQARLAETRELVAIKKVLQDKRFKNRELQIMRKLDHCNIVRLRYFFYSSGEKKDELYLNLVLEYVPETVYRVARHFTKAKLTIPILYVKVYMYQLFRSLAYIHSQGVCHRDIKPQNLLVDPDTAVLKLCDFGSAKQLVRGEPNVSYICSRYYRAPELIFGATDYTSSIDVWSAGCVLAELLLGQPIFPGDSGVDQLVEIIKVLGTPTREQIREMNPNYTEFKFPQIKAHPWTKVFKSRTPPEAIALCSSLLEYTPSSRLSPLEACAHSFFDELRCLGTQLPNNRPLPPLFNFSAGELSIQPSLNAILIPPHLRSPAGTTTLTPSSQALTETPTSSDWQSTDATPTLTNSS

With `COc1cc(F)ccc1-c1cc(Nc2cc(CS(C)(=N)=O)ccn2)ncc1F` (centres unmarked) [VIP152], the remaining binding at 1 µM in test [1] is 74%; at BRSK2 it was 100%; at FLT3(D835Y), 67%; at CSNK1G2, 93%; at PKNB(M.tuberculosis), 100%; on FRK it was 47%. In addition, the remaining binding at 1 µM is 100% on IKK-beta; 100% on EGFR(L861Q); 76% at FGFR4; 83% at FGFR1; 100% at IGF1R; 78% at FLT3(R834Q). The figures for the remaining binding at 0.1 µM at STK39, on TAK1 and on TYRO3 were 100%, 97% and 100%, respectively. Moreover, the IC50 with MEC-1 (MEC1, 24, 48, and 72 h, read-out: proliferation IC50) is 0.15 to 1 µM; with MEC-1 (MEC1, two-hour drugging followed by washout, MTS after 72 h, read-out: 50% growth inhibition), 1.7 µM; at CDK7/Cyclin H, above 10 µM; in the test with HG-3 (Homo sapiens, 24, 48, and 72 h, read-out: proliferation IC50), 0.05 to 0.067 µM; with HG-3 (Homo sapiens, two-hour drugging followed by washout, MTS after 72 h, read-out: 50% growth inhibition) it was 0.97 µM. Moreover, on GSK3α, the “potency versus the other inhibitors tested” value is reported as “higher potency”. Besides, the “% Inh.” value in [2] is reported as 7%. For the same compound, the inhibition at 10 µM in test [3] is 6%.
